Assay [1] concerns HPK1 p-SLP-76. As to the kind of experiment: HPK1 p-SLP-76 inhibition assay in human PBMC (HTRF). As to conditions: 6 h compound, anti-CD3 stimulation 20 min. Type of assay: cell-based. On the procedure:
Human PBMC were purchased from OriCells (FPB004F-C). Before compound treatment, PBMC were starved in PRMI-1640 medium supplemented with 0.5% FBS overnight. The cell density was adjusted to 1*10^7 cells/mL in assay medium (RPMI-1640 no phenol red with 0.5% FBS) and 16 μL cell suspension was transferred per well to a 384-well plate (Corning #3765). 6× solution of test compound was prepared in assay medium and 4 μL was added per well to the 384-well plate. The plate was then incubated at 37° C., 5% CO2 for 6 h. PBMC in 384-well plate were stimulated with anti-CD3 (BD Biosciences #555329, final conc. is 10 ug/mL) for 20 min at 37° C., 5% CO2 by adding 4 μL 6× antibody solution per well. Phospho-SLP76 HTRF kit was purchased from Cisbio (63ADK076PEH). 8 μL 4× Lysis Buffer was added to 384-well plate after anti-CD3 stimulation. The plate was centrifuged at 1,000 rpm for 1 min, shaken at 250 rpm for 60 min and centrifuged again at 1,000 rpm for 5 min. Afterwards the cell lysates were transferred to the assay plate (Greiner #784075) with 16 μL per well. 4 μL detection antibody mix per well prepared in Detection Buffer was added to the assay plate, followed by centrifugation at 1,000 rpm for 1 min and incubation at 25° C. overnight.
For orientation: Time-resolved FRET reads energy transfer from a long-lived donor to a nearby acceptor.

Assay [2] deals with T1, HPK1 protein (Homo sapiens, UniProt Q92918).
T1 construct: purchased Signal Chem M23-11G-10
T1 sequence (Q92918 1-346 limits assumed): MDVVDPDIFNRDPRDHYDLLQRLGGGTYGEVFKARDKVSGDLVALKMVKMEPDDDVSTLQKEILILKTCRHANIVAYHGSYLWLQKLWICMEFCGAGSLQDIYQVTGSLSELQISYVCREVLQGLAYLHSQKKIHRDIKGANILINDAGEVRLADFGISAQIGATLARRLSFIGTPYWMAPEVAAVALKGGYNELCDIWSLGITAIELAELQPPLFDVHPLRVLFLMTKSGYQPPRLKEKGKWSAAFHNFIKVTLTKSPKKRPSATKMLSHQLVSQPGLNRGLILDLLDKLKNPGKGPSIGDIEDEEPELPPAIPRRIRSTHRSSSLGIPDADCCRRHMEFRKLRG
Put plainly: HPK1 enzyme inhibition assay (ADP-Glo). Type of assay: biochemical. The note with it: MBP substrate, ATP, ADP-Glo readout. On the procedure: The compound was dissolved in 100% DMSO at the concentration of 10 mM. The HPK1 protein was purchased from Signal Chem (M23-11G-10). 2.5 μL per well of 2×HPK1 protein was added to assay plate containing the test compound, centrifuged at 1500 rpm for 1 minute, and then incubated at 25° C. for 60 minutes. MBP protein was purchased from Signal Chem (M42-51N) and ATP was purchased from Promega (V9102). The two were added 2.5 μL per well mixture of 2×MBP (0.2 ug/ul) and ATP (20 μM), centrifuged at 1500 rpm for 1 minute, then incubated at 25° C. for 60 minutes. Then added 5 μL of ADP-Glo from Promega (V9102) to the assay plate and depleted the unconsumed ATP for 60 minutes. Then centrifuged at 1500 rpm for 1 minute and incubated at 25° C. for 60 minutes. Finally, 10 μL of the kinase assay reagent from Promega (V9102) was added to the assay plate to convert ADP to ATP, centrifuged at 1500 rpm for 1 minute, incubate at 25° C. for 40 minutes. After 40 minutes incubation, the […] was determined. Based on the results, the IC50 value of the compound was calculated.
Background: ADP-Glo first removes unused ATP, then detects ADP through luciferase.

Bounds are passed on as bounds.

Turning to `O=C1CCC(N2C(=O)c3ccc(C4CCN(CCCN5CCN(c6cccc(-c7cnc8[nH]cc(C9CC9)c8c7Cl)n6)C(=O)C5)CC4)cc3C2=O)C(=O)N1` (stereo not drawn) [Example 84, 5-(1-(3-(4-(6-(4-chloro-3-cyclopropyl-1H-pyrrolo[2,3-b]pyridin-5-yl)pyridin-2-yl)-3-oxopiperazin-1-yl)propyl)piperidin-4-yl)-2-(2,6-dioxopiperidin-3-yl)isoindoline-1,3-dione], the IC50 (commonly the concentration at which inhibition is half-maximal) is at most 300 nM in assay [1] and at most 10 nM in assay [2].
As for `O=C1CCC(c2ccc(OC3CCN(CCCN4CCN(c5cccc(-c6cnc7[nH]cc(C8CC8)c7c6Cl)c5)C(=O)C4)CC3)cc2)C(=O)N1` (stereo not drawn) [Example 86], the IC50 in assay [1] is 300 to 3000 nM; in assay [2], at most 10 nM.
In the case of `CCc1c[nH]c2ncc(-c3cccc(N4CCN(C(=O)CCOCCOCCOc5cccc6c5CN(C5CCC(=O)NC5=O)C6=O)CC4=O)c3)c(Cl)c12` (stereo not drawn) [Example 12, 3-(4-(2-(2-(3-(4-(3-(4-chloro-3-ethyl-1H-pyrrolo[2,3-b]pyridin-5-yl)phenyl)-3-oxopiperazin-1-yl)-3-oxopropoxy)ethoxy)ethoxy)-1-oxoisoindolin-2-yl)piperidine-2,6-dione], the IC50 fell in the range of 3000 to 10000 nM in assay [1] and 10 to 100 nM in assay [2].
Regarding `O=C1CCC(N2C(=O)c3ccc(N4CCN(CCCN5CCN(c6cccc(-c7cnc8[nH]cc(C9CC9)c8c7Cl)n6)C(=O)C5)CC4)cc3C2=O)C(=O)N1` (stereo not drawn) [Example 80, 5-(4-(3-(4-(6-(4-chloro-3-cyclopropyl-1H-pyrrolo[2,3-b]pyridin-5-yl)pyridin-2-yl)-3-oxopiperazin-1-yl)propyl)piperazin-1-yl)-2-(2,6-dioxopiperidin-3-yl)isoindoline-1,3-dione], the figures for the IC50 in assay [1] and in assay [2] were at most 300 nM and at most 10 nM, respectively.
Turning to `O=C1CCC(N2C(=O)c3ccc(C4CCN(CCCN5CCN(c6cccc(-c7cnc8[nH]cc(C9CC9)c8c7Cl)c6)C(=O)C5)CC4)cc3C2=O)C(=O)N1` (stereo not drawn) [Example 71, 5-(1-(3-(4-(3-(4-chloro-3-cyclopropyl-1H-pyrrolo[2,3-b]pyridin-5-yl)phenyl)-3-oxopiperazin-1-yl)propyl)piperidin-4-yl)-2-(2,6-dioxopiperidin-3-yl) isoindoline-1,3-dione], the half-inhibitory concentration (IC50) in assay [1] was at most 300 nM; in assay [2] it was at most 10 nM.
Take `O=C1CCC(N2C(=O)c3ccc(N4CC(CCOC(=O)N5CCN(c6cccc(-c7cnc8[nH]cc(CC(F)F)c8c7Cl)c6)C(=O)C5)C4)cc3C2=O)C(=O)N1` (stereo not drawn) [Example 91]: the IC50 in assay [1] was above 10000 nM; in assay [2], 10 to 100 nM.
Consider `O=C1CCC(N2Cc3cc(C4CCN(CCCN5CCN(c6cccc(-c7cnc8[nH]cc(C9CC9)c8c7Cl)n6)C(=O)C5)CC4)ccc3C2=O)C(=O)N1` (stereo not drawn) [Example 82, 3-(5-(1-(3-(4-(6-(4-chloro-3-cyclopropyl-1H-pyrrolo[2,3-b]pyridin-5-yl)pyridin-2-yl)-3-oxopiperazin-1-yl)propyl)piperidin-4-yl)-1-oxoisoindolin-2-yl)piperidine-2,6-dione], for which the IC50 in assay [1] is at most 300 nM; in assay [2] it was at most 10 nM.
In the same order, the values of `O=C1CCC(Nc2ccc(C3CCN(CCCS(=O)(=O)N4CCN(c5cccc(-c6cnc7[nH]cc(C8CC8)c7c6Cl)c5)C(=O)C4)CC3)cc2)C(=O)N1` (stereo not drawn) [Example 104] are at most 300 nM and at most 10 nM.
Take `O=C1CCC(Nc2ccc(N3CCN(CCCS(=O)(=O)N4CCN(c5cccc(-c6cnc7[nH]cc(C8CC8)c7c6Cl)c5)C(=O)C4)CC3)c(F)c2)C(=O)N1` (stereo not drawn) [Example 105, 3-((4-(4-(3-((4-(3-(4-chloro-3-cyclopropyl-1H-pyrrolo[2,3-b]pyridin-5-yl)phenyl)-3-oxopiperazin-1-yl)sulfonyl)propyl)piperazin-1-yl)-3-fluorophenyl)amino)piperidine-2,6-dione]: the IC50 in assay [1] was at most 300 nM; in assay [2], at most 10 nM.
As for `O=C1CCC(N2C(=O)c3ccc(C4=CCN(CCCN5CCN(c6cccc(-c7cnc8[nH]cc(C9CC9)c8c7Cl)n6)C(=O)C5)CC4)cc3C2=O)C(=O)N1` (stereo not drawn) [Example 85, 5-(1-(3-(4-(6-(4-chloro-3-cyclopropyl-1H-pyrrolo[2,3-b]pyridin-5-yl)pyridin-2-yl)-3-oxopiperazin-1-yl)propyl)-1,2,3,6-tetrahydropyridin-4-yl)-2-(2,6-dioxopiperidin-3-yl)isoindoline-1,3-dione], the IC50 in assay [1] was 300 to 3000 nM; in assay [2], at most 10 nM.
For `O=C1CCC(N2C(=O)c3ccc(N4CCN(CCCS(=O)(=O)N5CCN(c6cccc(-c7cnc8[nH]cc(CC(F)F)c8c7Cl)c6)C(=O)C5)CC4)cc3C2=O)C(=O)N1` (stereo not drawn) [Example 106], in that order: 300 to 3000 nM and at most 10 nM.
`O=C1CCC(N2C(=O)c3ccc(C4=CCN(CCCN5CCN(c6cccc(-c7cnc8[nH]cc(C9CC9)c8c7Cl)c6)C(=O)C5)CC4)cc3C2=O)C(=O)N1` (stereo not drawn) [Example 70, 5-(1-(3-(4-(3-(4-chloro-3-cyclopropyl-1H-pyrrolo[2,3-b]pyridin-5-yl)phenyl)-3-oxopiperazin-1-yl)propyl)-1,2,3,6-tetrahydropyridin-4-yl)-2-(2,6-dioxopiperidin-3-yl)isoindoline-1,3-dione]: the IC50 lay within 300 to 3000 nM in assay [1] and 10 to 100 nM in assay [2].
For `O=C1CCC(N2Cc3cc(C4=CCN(CCCN5CCN(c6cccc(-c7cnc8[nH]cc(C9CC9)c8c7Cl)n6)C(=O)C5)CC4)ccc3C2=O)C(=O)N1` (stereo not drawn) [Example 83], the IC50 in assay [1] is at most 300 nM; in assay [2], at most 10 nM.
Consider `O=C1CCN(c2cnc3cc(C4=CCN(CCCN5CCN(c6cccc(-c7cnc8[nH]cc(C9CC9)c8c7Cl)c6)C(=O)C5)CC4)ccn23)C(=O)N1` [Example 93, 1-(7-(1-(3-(4-(3-(4-chloro-3-cyclopropyl-1H-pyrrolo[2,3-b]pyridin-5-yl)phenyl)-3-oxopiperazin-1-yl)propyl)-1,2,3,6-tetrahydropyridin-4-yl)imidazo[1,2-a]pyridin-3-yl)dihydropyrimidine-2,4 (1H,3H)-dione], for which the IC50 was 300 to 3000 nM in assay [1] and at most 10 nM in assay [2].
In the case of `Cn1nc(C2CCC(=O)NC2=O)c2ccc(C3CCN(CCCN4CCN(c5cccc(-c6cnc7[nH]cc(C8CC8)c7c6Cl)c5)C(=O)C4)CC3)cc21` (stereo not drawn) [Example 92, 3-(6-(1-(3-(4-(3-(4-chloro-3-cyclopropyl-1H-pyrrolo[2,3-b]pyridin-5-yl)phenyl)-3-oxopiperazin-1-yl)propyl)piperidin-4-yl)-1-methyl-1H-indazol-3-yl)piperidine-2,6-dione], the IC50 was 300 to 3000 nM in assay [1] and at most 10 nM in assay [2].
As for `O=C1CCC(c2ccc(C3CCN(CCCCN4CCN(c5cccc(-c6cnc7[nH]cc(C8CC8)c7c6Cl)c5)C(=O)C4)CC3)cc2)C(=O)N1` (stereo not drawn) [Example 87], the IC50 in assay [1] is at most 300 nM; in assay [2] it was at most 10 nM.
For `O=C1CCC(N2Cc3cc(N4CCN(CCCN5CCN(c6cccc(-c7cnc8[nH]cc(C9CC9)c8c7Cl)n6)C(=O)C5)CC4)ccc3C2=O)C(=O)N1` (stereo not drawn) [Example 81, 3-(5-(4-(3-(4-(6-(4-chloro-3-cyclopropyl-1H-pyrrolo[2,3-b]pyridin-5-yl)pyridin-2-yl)-3-oxopiperazin-1-yl)propyl)piperazin-1-yl)-1-oxoisoindolin-2-yl)piperidine-2,6-dione], in that order: at most 300 nM and at most 10 nM.
Turning to `CCc1c[nH]c2ncc(-c3cccc(N4CCN(C(=O)CCCCCCCOc5cccc6c5CN(C5CCC(=O)NC5=O)C6=O)CC4=O)c3)c(Cl)c12` (stereo not drawn) [Example 1], the concentration for half-maximal inhibition (IC50) in assay [1] was 3000 to 10000 nM; in assay [2] it was 10 to 100 nM.
